Experimental data taken from patent publication US11179363B2, “Non-steroidal selective glucocorticoid receptor agonistic modulators (SEGRAMs) and uses thereof” (ASSOCIATION POUR LA RECHERCHE À L'IGBMC (ARI), priority 2017, dated 2021).

What was measured:
[1] = test system: collagen-induced Th17 rheumatoid arthritis-like inflammation; assay: Collagen-induced arthritis (CIA); format: in vivo, mice (DBA-1 strain); settings: i.p. 1 mg/kg daily for 10 days (T0 to T10); 1 mg/kg
Description: Mice were treated with collagen to induce a Th17 rheumatoid arthritis-like inflammation as described by Inglis et al. (2007. Arthritis Res Ther. 9(5):R113) and Geboes et al. (2009. Arthritis Rheum. 60(2):390-5).
Male mice (DBA-1 strain) were subcutaneously-injected with 100 μg collagen per mouse on D0. The hind paw thickness at the ankle level was regularly measured with a caliper. When the ankle thickness had reached around 4 mm (T0, i.e., 30 to 50 days after the collagen injection on D0), mice were daily intraperitoneally-injected for 10 days (T0 to T10) with either vehicle (NaCl 0.9%), Dex, CpdX, CpdX(eA), CpdX(eB), CpdX-D3, CpdX-D3(eA) or CpdX-D3(eB) (1 mg/kg body weight diluted in NaCl 0.9%), and the hind paw thickness at the ankle level was daily measured with a caliper. Pictures of the hind paws were taken at days T0 and T10 (before and after the treatment with either Vehicle, Dex, CpdX, CpdX(eA), CpdX(eB), CpdX-D3, CpdX-D3(eA) or CpdX-D3(eB)), in order to assess the course of swelling.
RNA transcripts were extracted from whole hind paws of collagen-untreated and collagen-treated mice at T0 and T10. IL-1β, IL-6, IL-17a, IL-17f and TNFα transcripts were analyzed by q-RT-PCR.

[2] = test system: DSS-induced Th17 ulcerative colitis; assay: Dextran sodium sulfate (DSS)-induced ulcerative colitis; format: in vivo, Balb/C mice; settings: for pro-inflammatory genes overexpressed in DSS-induced ulcerative colitis (IL-1β, IL-6, IL-17a, IL-17f, TSLP, MMP13): colon, q-RT-PCR, D14; for colonic villus/crypt structure (histology) / mucosal and submucosal cell infiltration (histology): i.p. 1 mg/kg on D11, D12, D13, 3% DSS 13 days
Description: To investigate the anti-inflammatory activity of CpdX and CpdX-D3 on a Th17 ulcerative colitis, Balb/C mice were treated with 3% DSS in drinking water for 13 days, with or without an intraperitoneal administration of either Dex, CpdX, CpdX(eA), CpdX(eB), CpdX-D3, CpdX-D3(eA) or CpdX-D3(eB) (1 mg/kg of body weight) on D11, D12 and D13.
At D14, RNA transcripts were extracted from mouse colons. IL-1β, IL-6, IL-17a, IL-17f, TSLP and MMP13 transcripts were analyzed by q-RT-PCR. Colon samples were also harvested for histological analyses (with H&E staining).

[3] = test system: OVA-induced allergic conjunctivitis; assay: Ovalbumin (OVA)-induced allergic conjunctivitis; format: in vivo, Balb/C mice; settings: 0.1% instillation D22 to D24, 20 minutes after the last OVA challenge
Description: To investigate the anti-inflammatory effect of CpdX or CpdX-D3 on an allergic conjunctivitis, Balb/C mice were intraperitoneally sensitized with 50 μg OVA with alum on both days D1 and D8, and then challenged from D15 to D21 with 250 μg OVA in 5 μL of sterilized vehicle (0.9% NaCl), which were directly instilled onto the conjunctival sac. From D22 to D24, mice were divided into several groups, and received instillations with either OVA alone, OVA together with 0.1% of either Dex, CpdX, CpdX(eA), CpdX(eB), CpdX-D3, CpdX-D3(eA) or CpdX-D3(eB).
The clinical appearance of mouse eyes was evaluated 20 minutes after the last instillation on D24. Clinical signs (conjunctival hyperemia, lid edema and tearing) were scored to evaluate the occurrence and severity of conjunctivitis as described by Gimenes et al. (2015. Experimental Eye Research 134:24-32). Parameters were graded on a scale ranging from 0 to 3, (0=absence, 1=mild, 2=moderate, and 3=severe symptoms), each animal receiving a total clinical score ranging from 0 to 9. The data were expressed as mean±SEM with at least four mice per treatment.

[4] = test system: dorsal skin of Balb/C mice; assay: Skin epidermis atrophy after 8-day topical treatment of dorsal skin; format: in vivo; settings: eight-day topical treatment
From the text: To investigate whether, similarly to Dex, a topical administration of CpdX could result in a skin atrophy, Balb/C mice were shaved on the dorsal skin. Ethanol (vehicle), Dex, CpdX or either one of its two enantiomers CpdX(eA) or CpdX(eB), as well as the deuterated form CpdX-D3 or either one of its two enantiomers CpdX-D3(eA) or CpdX-D3(eB), were topically applied onto the dorsal skin for 8 days.
Upon completion of the treatments, RNA transcripts were extracted from dorsal skin samples and the transcripts of Kindlin-1 and REDD1 genes were analyzed by q-RT-PCR. Histological and morphometric analyses of the dorsal skin were also performed.

[5] = test system: thymus, spleen, adrenal gland and kidney; assay: Organ weights (thymus, spleen, adrenal gland, kidney) after three-month treatment; format: in vivo, B6 male mice; settings: s.c. 1 mg/kg daily, three months
Description: B6 male mice (8-week-old) were daily subjected for three months to a subcutaneous injection of either vehicle (NaCl 0.9%), Dex, CpdX, CpdX(eA), CpdX(eB), CpdX-D3, CpdX-D3(eA) or CpdX-D3(eB) (1 mg/kg body weight, diluted in vehicle). Following these treatments, four organs (thymus, spleen, adrenal gland and kidney) were harvested and weighted.

[6] = test system: adrenal glands; assay: Corticosterone synthesis and adrenal gland after three-month treatment; format: in vivo, B6 male mice; settings: three months; for cortex layers, most notably the fasciculata zone, of the adrenal glands (histology) / transcripts of Cyp11a, Cyp11b1 and HSD3β genes in adrenal glands (corticosterone synthesis pathway): s.c. 1 mg/kg daily; for transcripts of Cyp11a, Cyp11b1 and HSD3β genes in adrenal glands (corticosterone synthesis pathway): q-RT-PCR; for plasmatic corticosterone level at 10 a.m.: vs Vehicle
Description: B6 male mice (8-week-old) were daily subjected for three months to either a subcutaneous injection of vehicle (NaCl 0.9%), Dex, CpdX, CpdX(eA), CpdX(eB), CpdX-D3, CpdX-D3(eA) or CpdX-D3(eB) (1 mg/kg body weight, diluted in vehicle).
Following this long-term treatment, blood was collected at 10 a.m. and 6 p.m. by retro-orbital puncture in lithium-heparin coated vials, and the plasmatic level of corticosterone was determined. Adrenal glands were harvested and weighted. RNA transcripts were extracted and transcripts of the Cyp11a, Cyp11b1, Cyp11b2 and HSD3β genes were analyzed by q-RT-PCR. Histological analyses of the adrenal glands were also carried out.

[7] = Blood glucose and intraperitoneal glucose tolerance test (IPGTT) after three-month treatment; format: in vivo, B6 male mice; settings: three months; glucose i.p. injection
Description: B6 male mice (8-week-old) were daily subjected for three months to a subcutaneous injection of either vehicle (NaCl 0.9%), Dex, CpdX, CpdX(eA), CpdX(eB), CpdX-D3, CpdX-D3(eA) or CpdX-D3(eB) (1 mg/kg body weight, diluted in vehicle). Mice were over-night-fasted. Mouse blood glucose concentration was measured before (To) and during two hours (T120) after glucose i.p. injection ([…]).

SMILES | hind paw thickness at the ankle level [1] | pro-inflammatory genes overexpressed in DSS-induced ulcerative colitis (IL-1β, IL-6, IL-17a, IL-17f, TSLP, MMP13) [2] | colonic villus/crypt structure (histology) [2] | mucosal and submucosal cell infiltration (histology) [2] | clinical signs of allergic conjunctivitis (conjunctival hyperemia, lid edema and tearing) [3] | epidermal thickness (morphometric analyses) [4] | thymus apoptosis (thymus weight) [5] | cortex layers, most notably the fasciculata zone, of the adrenal glands (histology) [6] | transcripts of Cyp11a, Cyp11b1 and HSD3β genes in adrenal glands (corticosterone synthesis pathway) [6] | plasmatic corticosterone level at 10 a.m. [6] | blood glucose level during two-hour IPGTT [7]
COc1ccc(F)cc1C(C)(C)CC(O)(CNc1ccc2c(c1)COC2=O)C(F)(F)F (single isomer, unassigned; enantiomer b) [CpdX(eB), 5-[4-(5-fluoro-2-methoxyphenyl)-2-hydroxy-4-methyl-2-(trifluoromethyl)-pentylamino]isobenzofuran-1(3H)-one enantiomer B] | no such decrease | similarly repressed | almost reestablished | significantly decreased | considerably reduced | not significantly decreased | did not result in any significant thymus apoptosis | markedly increased | increased | much higher | no significant difference
[2H]C([2H])([2H])Oc1ccc(F)cc1C(C)(C)CC(O)(CNc1ccc2c(c1)COC2=O)C(F)(F)F (single isomer, unassigned; enantiomer b) [CpdX-D3(eB), 5-{4-[2-(methoxy-D3)-5-fluorophenyl]-2-hydroxy-4-methyl-2-(trifluoromethyl)pentylamino}isobenzofuran-1(3H)-one enantiomer B] | no such decrease | similarly repressed | almost reestablished | significantly decreased | considerably reduced | not significantly decreased | did not result in any significant thymus apoptosis | markedly increased | increased | much higher | no significant difference
